Results published in PubChem BioAssay (NCI).
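Cells were grown in 96-well plates and exposed to each compound for 48 hours at five concentrations; endpoints were interpolated linearly between bracketing concentrations, or set to the highest concentration if not reached. At the GI50, growth is halved. Definition used: TGI = concentration required for complete inhibition of growth.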

Experiments:
Assay in all cases: inhibition of tumour cell growth, NCI panel, 48 h; in the data active = GI50 below about 0.43 µM; inactive = the rest
NCI-H226 lung = tested on: NCI-H226 lung
NCI-H23 lung = tested on: NCI-H23 lung
NCI-H460 lung = tested on: NCI-H460 lung
NCI-H522 lung = tested on: NCI-H522 lung
NCI/ADR-RES ovarian = tested on: NCI/ADR-RES ovarian
OVCAR-3 ovarian = tested on: OVCAR-3 ovarian
OVCAR-4 ovarian = tested on: OVCAR-4 ovarian
OVCAR-5 ovarian = tested on: OVCAR-5 ovarian
OVCAR-8 ovarian = tested on: OVCAR-8 ovarian
PC-3 prostate = tested on: PC-3 prostate
RPMI-8226 leukemia = tested on: RPMI-8226 leukemia
RXF 393 renal = tested on: RXF 393 renal
SF-268 CNS = tested on: SF-268 CNS
SF-295 CNS = tested on: SF-295 CNS
SF-539 CNS = tested on: SF-539 CNS
SK-MEL-2 melanoma = tested on: SK-MEL-2 melanoma
SK-MEL-28 melanoma = tested on: SK-MEL-28 melanoma
SK-MEL-5 melanoma = tested on: SK-MEL-5 melanoma
SK-OV-3 ovarian = tested on: SK-OV-3 ovarian
SN12C renal = tested on: SN12C renal
SNB-19 CNS = tested on: SNB-19 CNS
SNB-75 CNS = tested on: SNB-75 CNS
SR leukemia = tested on: SR leukemia
SW-620 colon = tested on: SW-620 colon
T-47D breast = tested on: T-47D breast
TK-10 renal = tested on: TK-10 renal
U251 CNS = tested on: U251 CNS
UACC-257 melanoma = tested on: UACC-257 melanoma
UACC-62 melanoma = tested on: UACC-62 melanoma
UO-31 renal = tested on: UO-31 renal

N#Cc1c(NC(=O)NCc2ccccc2)sc2c1CCCCC2
1610 nM: TGI (OVCAR-3 ovarian)
24000 nM: TGI (SF-295 CNS)
2380 nM: TGI (RXF 393 renal)
1870 nM: TGI (SF-539 CNS)
> 31700 nM: TGI (NCI-H460 lung)
4910 nM: TGI (SNB-75 CNS)
3600 nM: TGI (SK-MEL-5 melanoma)
inactive: GI50 (NCI-H23 lung) 695 nM | GI50 (NCI-H522 lung) 601 nM | GI50 (OVCAR-4 ovarian) 1320 nM | GI50 (OVCAR-5 ovarian) 2050 nM | GI50 (OVCAR-8 ovarian) 1610 nM | GI50 (PC-3 prostate) 488 nM | GI50 (SF-268 CNS) 1520 nM | GI50 (SK-MEL-2 melanoma) 2270 nM | GI50 (SK-MEL-28 melanoma) 2770 nM | GI50 (SK-MEL-5 melanoma) 478 nM | GI50 (SK-OV-3 ovarian) 799 nM | GI50 (SN12C renal) 682 nM | GI50 (SNB-19 CNS) 588 nM | GI50 (TK-10 renal) 5920 nM | GI50 (U251 CNS) 535 nM | GI50 (UACC-257 melanoma) 1500 nM | GI50 (UACC-62 melanoma) 533 nM | GI50 (UO-31 renal) 626 nM
> 40200 nM: TGI (UACC-62 melanoma)
> 100000 nM: TGI (OVCAR-4 ovarian) | TGI (OVCAR-5 ovarian) | TGI (OVCAR-8 ovarian) | TGI (PC-3 prostate) | TGI (SF-268 CNS) | TGI (SK-MEL-2 melanoma) | TGI (SK-MEL-28 melanoma) | TGI (SK-OV-3 ovarian) | TGI (SN12C renal) | TGI (SNB-19 CNS) | TGI (SR leukemia) | TGI (SW-620 colon) | TGI (T-47D breast) | TGI (TK-10 renal) | TGI (UACC-257 melanoma) | TGI (UO-31 renal)
27100 nM: TGI (NCI/ADR-RES ovarian)
> 71200 nM: TGI (U251 CNS)
> 59800 nM: TGI (NCI-H23 lung)
25300 nM: TGI (NCI-H522 lung)
> 28800 nM: TGI (NCI-H226 lung)
active: GI50 (NCI-H460 lung) 352 nM | GI50 (NCI/ADR-RES ovarian) 420 nM | GI50 (OVCAR-3 ovarian) 346 nM | GI50 (RPMI-8226 leukemia) 397 nM | GI50 (RXF 393 renal) 352 nM | GI50 (SF-295 CNS) 425 nM | GI50 (SF-539 CNS) 328 nM | GI50 (SNB-75 CNS) 261 nM | GI50 (SR leukemia) 346 nM | GI50 (SW-620 colon) 406 nM | GI50 (T-47D breast) 343 nM
